For data set [1], the system named is P. aeruginosa strain 762. The experiment in a line: Effect of LCBs on P. aeruginosa growth in vitro (colony counts). The note with it: Pseudomonas aeruginosa. In kind it is cell-based, Pseudomonas aeruginosa. The protocol:
P. aeruginosa strain 762 or ATCC 27853 were grown in LB medium at 37° C. until the early logarithmic phase (OD550 0.2). Bacteria were then diluted in PBS to a concentration of 5×10^3 CFU/ml. Stock solutions of sphingolipids (5 mM in 7.5% n-Octyl-β-D-Glucopyranoside (OGP) or in DMSO were prepared by sonication. Sphingolipids were added to the bacteria (0.1-50 μM in 0.075% OGP or 1% DMSO). Bacteria were incubated with sphingolipids for 2 hr at 37° C. and a sample of 200 μl bacteria solution were plated on LB agar plates, incubated overnight at 37° C. and colonies were counted.
The direct effect of sphingosine and other sphingoid long chain bases (LCBs) on the growth of P. aeruginosa was examined in vitro. Bacteria were incubated with a variety of LCBs and the EC50 values on bacterial growth were determined (Table 1).

Data set [2] deals with P. aeruginosa strains 762, PA14 and ATCC 27853. Description: Pulmonary P. aeruginosa infection of CF and CerS2 null mice, inhalation treatment (bacteria in lung, sickness score). To be noted: CF and CerS2 null mice; inhalation (125 μM) 1 h before or 1 h after intranasal infection with 1×10^8 CFU. In kind it is in vivo, mouse. Here is the method: (A,B) The number of bacteria in the lungs and the overall sickness score (C,D) of WT, CerS2 null and CF mice 3-4 h after intranasal infection with 1×10^8 CFU of P. aeruginosa strains 762 (A,C) and CF mice with strains PA14 and ATCC 27853. Mice were inhaled with 0.9% NaCl or acid ceramidase 1 h prior (b.i.) to infection, or with sphingosine or FTY720 1 h before (b.i.) or 1 h after (a.i.) infection. Sickness score 4, severely affected (unresponsive animal); score 3 affected, (heavy breathing, low body temperature, ruffled fur) score 2, moderately affected (ruffled fur, heavy breathing); score 1, slightly affected (ruffled fur); score 0, unaffected (healthy appearance). Data are means±s.d., n=4.
Pulmonary infection of CF or CerS2 mice was achieved by intranasal application of P. aeruginosa strains 762, ATCC 27853 or PA14. Mice inhaled acid ceramidase, sphingosine, FTY720 or a combination of sphingosine and ceramide 1 hr before or after pulmonary infection. The number of bacteria in the lung was determined by culturing aliquots of lysed lungs on agar plates. Clinical symptoms of the infection were scored.
Inhalation was performed with a PARI Boy SX nebulizer (PARI GmbH, Starnberg, Germany). This nebulizer generates a fine aerosol mist by pumping the fluid with an air jet. The mice inhaled the aerosol via a mask that is part of an oral inhalation device for children (LL-Nebulizer); the mask was clipped at the sides to cover only the mouse's nose and the surrounding part of the face. […]
P. aeruginosa were grown for 14 to 14.5 h on fresh tryptic soy agar (TSA) plates (Becton Dickinson Biosciences, Germany). […] The bacterial OD was determined, and the bacteria were diluted in prewarmed H/S to a concentration of 1×10^8 CFU per 20 μL. […]
Lungs were removed, homogenised and lysed for 10 min in 5 mg/ml saponin to release intracellular bacteria. […] Bacterial counts (CFU) were counted after 18 h.

The conditions of data set [3]: superscript reference marks; cited from earlier work.

“Also recorded” adds a separate entry of the source. Read-outs that look alike come from different tables or passages of the source.

Regarding `CCCCCCCCCCCCC/C=C/[C@@H](O)[C@@H](N)CO` (stereo in doubt) [D-erythro-Sphingosine, (2S,3R)-2-aminooctadec-4-ene-1,3-diol], the EC50 (in general, the concentration giving half of the maximal effect) in data set [1] (762, Table 3, Example 3, method of Example 2, n=3 for each analog, given as ranges, read-out: EC50) is 0.5 to 1 µM; in data set [1] (P. aeruginosa strain 762, 2 hrs at 37° C. in 0.075% OGP, colonies counted, at least 3 independent experiments, read-out: EC50 (μM) ± S.D.), 0.5 ± 0.1 µM. For the same compound, in data set [2], the “protection from pulmonary P. aeruginosa infection” value is “completely protected CF and CerS2 null mice from P. aeruginosa infection and even eliminated an existing infection; also recorded: rescue CF and CerS2 null mice from pulmonary P. aeruginosa infection; also recorded: prevents pulmonary P. aeruginosa infection”. Moreover, in data set [3], the “pK (in PBS)” value was 6.7^1,2.

These data come from patent US20150258043A1, “USE OF SPHINGOID LONG CHAIN BASES AND THEIR ANALOGS IN TREATING AND PREVENTING BACTERIAL INFECTIONS” (YEDA RESEARCH AND DEVELOPMENT CO. LTD., priority 2012, published 2015).
